From patent EP1138682A1, “Novel water soluble c-ring analogues of 20 (s)-camptothecin” (priority 1996, dated 1997)
Where two headings read alike, the source gives them in different places.

How the values were obtained:
[1] = tested on: NCI's 60 human tumor cell line; assay: NCI 60 human tumor cell line assay (sulforhodamine B); format: cell-based; conditions: read-out: IC50 (the source's name)
Description: Each test compound was screened against a battery of 60 human cell lines obtained from eight organs. In a typical procedure, the cell suspensions that were diluted according to the particular cell type and the expected target cell density (5000-40,000 cells per well based on cell growth characteristics) were added into 96-well microtiter plates. Inoculates were allowed a preincubation period of 24h at 37°C. for stabilization. Dilutions at twice the intended test concentrations were added at time zero in 100-µl aliquots to microtiter plate wells. Usually test compounds were evaluated at five 10-fold dilutions. The highest well concentration used in the test is 10^-4M. The cells are then incubated in the presence of drug (the test compound) for further 48h in 5% CO2 atmosphere and 100% humidity. At the end of this time, the adherent cells are fixed to the plate by means of trichloroacetic acid, and after a number of washes, the cell layer is treated with the protein stain Sulforhodamine B. The optical density which is proportional to protein mass, is then read by automated spectrophotometric plate readers at a wavelength of 515 nm. Readings are transferred to a microcomputer and final reports are generated using especially developed software.

Human Serum Albumin = Human Serum Albumin (Homo sapiens, UniProt P02768); conditions: in the presence of HSA at 37°C; comparison in words; cited from earlier work
[2] = mean value of GI50 (50% cell growth inhibition) over NCI's 60 human tumor cell lines, 48h incubation with drug

Human Serum Albumin, sequence (P02768 25-609): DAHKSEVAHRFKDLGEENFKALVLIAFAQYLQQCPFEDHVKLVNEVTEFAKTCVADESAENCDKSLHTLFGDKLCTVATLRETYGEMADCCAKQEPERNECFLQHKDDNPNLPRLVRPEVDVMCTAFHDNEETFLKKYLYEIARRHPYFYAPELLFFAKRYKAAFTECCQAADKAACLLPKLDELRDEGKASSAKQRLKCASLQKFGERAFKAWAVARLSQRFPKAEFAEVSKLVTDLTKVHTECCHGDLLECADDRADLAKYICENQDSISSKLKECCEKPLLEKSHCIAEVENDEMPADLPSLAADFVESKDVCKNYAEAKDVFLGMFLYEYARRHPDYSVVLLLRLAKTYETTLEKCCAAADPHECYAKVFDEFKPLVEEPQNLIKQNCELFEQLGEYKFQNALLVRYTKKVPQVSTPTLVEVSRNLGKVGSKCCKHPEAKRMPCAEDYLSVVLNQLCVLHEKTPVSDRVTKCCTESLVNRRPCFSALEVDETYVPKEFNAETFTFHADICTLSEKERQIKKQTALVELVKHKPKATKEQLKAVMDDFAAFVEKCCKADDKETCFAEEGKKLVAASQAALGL

Compound	GI50 [1, 2] [µM]	also measured
5-(2'-N-pyrrolidinoethoxy)-7-ethylcamptothecin [Example 39]	18.6	–
CC[C@@]1(O)C(=O)OCc2c1cc1n(c2=O)C(OCCOC)c2cc3ccccc3nc2-1 (stereo partly shown) [Example 43, 5-(2'-methoxyethoxy)camptothecin]	2.23	–
CCc1c2c(nc3ccc(O)cc13)-c1cc3c(c(=O)n1C2)COC(=O)[C@]3(O)CC [SN-38, 7-ethyl-10-hydroxycamptothecin]	–	percentage (%) of lactone form at equilibrium (Human Serum Albumin): higher percentage (%) of lactone form at equilibrium than 20(S) camptothecin of the formula 3 and 9-aminocamptothecin of the formula 6
CCOC1c2cc3c(O)cccc3nc2-c2cc3c(c(=O)n21)COC(=O)[C@]3(O)CC (stereo partly shown) [Example 11, 5-Ethoxy-9-hydroxycamptothecin]	6.68	–
CC[C@@]1(O)C(=O)OCc2c1cc1n(c2=O)C(OCC(F)(F)F)c2cc3cc(O)ccc3nc2-1 (stereo partly shown) [Example 27, 10-Hydroxy-5-trifluoroethoxycamptothecin]	0.38	–
5-(2'-aminoethoxy)-7-ethylcamptothecin [Example 37]	18.6	–
CC[C@@]1(O)C(=O)OCc2c1cc1n(c2=O)C(OCCO)c2cc3c([N+](=O)[O-])cccc3nc2-1 (stereo partly shown) [9-Nitro-5-(2'-hydroxyethoxy)camptothecin]	–	GI50 ([1]; Homo sapiens, 48 h): 7.94 µM
